The subject of the experiment is L1210 leukemia ip in BDF1 mice, survival T/C. Briefly: NCI In Vivo Anticancer Drug Screen. Data for tumor model L1210 Leukemia (intraperitoneal) in B6D2F1 (BDF1) mice. The conditions noted are these: endpoint: mean survival time, higher = longer survival. The gist of the method:
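Antitumor effect is assessed in tumor-bearing animals. Survival in the compound arm is compared with a vehicle-dosed control arm and expressed as their quotient.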

[1] abbreviates: dose: 50.0 mg/kg/injection, schedule: Q01DX009 (ip), vehicle: Klucel (hydroxypropylcellulose) (HPC).
[2] abbreviates: dose: 100.0 mg/kg/injection, schedule: Q01DX009 (ip), vehicle: Klucel (hydroxypropylcellulose) (HPC).
The mark [3] stands for this setting: dose: 200.0 mg/kg/injection, schedule: Q01DX009 (ip), vehicle: Klucel (hydroxypropylcellulose) (HPC).
The mark [4] stands for this setting: dose: 400.0 mg/kg/injection, schedule: Q01DX009 (ip), vehicle: Klucel (hydroxypropylcellulose) (HPC).
The mark [5] stands for this setting: dose: 100.0 mg/kg/injection, schedule: Q04DX002 (ip), vehicle: Klucel (hydroxypropylcellulose) (HPC).
[6] abbreviates: dose: 200.0 mg/kg/injection, schedule: Q04DX002 (ip), vehicle: Klucel (hydroxypropylcellulose) (HPC).
[7] abbreviates: dose: 400.0 mg/kg/injection, schedule: Q04DX002 (ip), vehicle: Klucel (hydroxypropylcellulose) (HPC).
Where [8] appears, read: dose: 100.0 mg/kg/injection, schedule: Q04DX003 (ip), vehicle: Klucel (hydroxypropylcellulose) (HPC).
The mark [9] stands for this setting: dose: 200.0 mg/kg/injection, schedule: Q04DX003 (ip), vehicle: Klucel (hydroxypropylcellulose) (HPC).
Setting [10] is: dose: 400.0 mg/kg/injection, schedule: Q04DX003 (ip), vehicle: Klucel (hydroxypropylcellulose) (HPC).
[11] abbreviates: dose: 25.0 mg/kg/injection, schedule: Q01DX009 (ip), vehicle: saline.
The mark [12] stands for this setting: dose: 50.0 mg/kg/injection, schedule: Q01DX009 (ip), vehicle: saline.
[13] abbreviates: dose: 50.0 mg/kg/injection, schedule: Q01DX001 (ip), vehicle: saline.
Setting [14] is: dose: 100.0 mg/kg/injection, schedule: Q01DX001 (ip), vehicle: saline.

This note sets out measurements from PubChem BioAssay AID248 (DTP/NCI, 2004).

“And” between values parts separate entries of the source, which are not always exact repeats. Equal entries are not always repeated. Inconclusive results and toxic doses are left out.

Take `Cc1ccc(C2NC(=O)c3ccccc3N2)s1` (stereo not given): the T/C runs as follows: under setting [1], 107 % of control and 92 % of control; under setting [2], 98 % of control and 105 % of control; (dose: 150.0 mg/kg/injection, schedule: Q01DX009 (ip), vehicle: Klucel (hydroxypropylcellulose) (HPC)) 102 % of control; under setting [3], 108 % of control; under setting [4], 87 % of control.

`O=C1CCCN(C2CCCCC2)CCC1O` (stereo not given): the T/C is 96 % of control (dose: 100.0 mg/kg/injection, schedule: Q04DX003 (ip), vehicle: acetone) and 93 % of control (dose: 200.0 mg/kg/injection, schedule: Q04DX003 (ip), vehicle: acetone).

In the case of `CC(=O)OC1CCC2(C)C(=CCC3C2CCC2(C)c4c(c(-c5ccccc5)nn4-c4ccccc4)CC32)C1` (stereo not given), the T/C runs as follows: under setting [5], 98 % of control; under setting [6], 90 % of control; under setting [7], 95 % of control.

`CC(C)CCOC(=O)C(O)c1ccccc1` (stereo not given): the T/C reads like this: under setting [2], 98 % of control; under setting [8], 100 % of control; under setting [3], 92 % of control; under setting [9], 88 % of control; under setting [4], 95 % of control; under setting [10], 91 % of control.

Take `CN(C)C(=O)C1Cc2ccccc2CC1C(=O)N(C)C` (stereo not given): the T/C under setting [1] is 97 % of control; the T/C under setting [2] was 97 % of control; the T/C under setting [8] was 101 % of control; the T/C under setting [3] is 101 % of control; the T/C under setting [9] is 102 % of control; the T/C under setting [10] is 97 % of control.

As for `COP(S)(=N/N=C/c1ccccn1)OC`, the T/C reads like this: (dose: 12.5 mg/kg/injection, schedule: Q04DX003 (ip), vehicle: saline with Tween-80) 104 % of control; (dose: 25.0 mg/kg/injection, schedule: Q04DX003 (ip), vehicle: saline with Tween-80) 95 % of control.

Turning to `O=C(C1CCC2c3ccccc3CCC2C1C(=O)N1CCCCC1)N1CCCCC1` (stereo not given), the T/C runs as follows: (dose: 50.0 mg/kg/injection, schedule: Q01DX001 (ip), vehicle: carboxymethylcellulose (CMC)) 103 % of control; (dose: 100.0 mg/kg/injection, schedule: Q01DX001 (ip), vehicle: carboxymethylcellulose (CMC)) 101 % of control; (dose: 200.0 mg/kg/injection, schedule: Q01DX001 (ip), vehicle: carboxymethylcellulose (CMC)) 108 % of control.

`COc1ccc2cc1Oc1ccc(cc1)CC1c3c(cc(OC)c4c3Oc3cc5c(cc3O4)CCNC5C2)CCN1C` (stereo not given): the T/C reads like this: under setting [5], 98 % of control; under setting [6], 98 % of control; under setting [7], 91 % of control.

`CSc1ncc2n1C=CN(C(=O)c1ccc([N+](=O)[O-])cc1)C2O` (stereo not given): the T/C reads like this: under setting [11], 89 % of control; (dose: 25.0 mg/kg/injection, schedule: Q04DX003 (ip), vehicle: saline) 106 % of control; under setting [12], 89 % of control; (dose: 50.0 mg/kg/injection, schedule: Q04DX003 (ip), vehicle: saline) 111 % of control; (dose: 100.0 mg/kg/injection, schedule: Q04DX003 (ip), vehicle: saline) 102 % of control.

Turning to `CC(=O)SCCCON1C(=O)c2ccccc2C1=O`, the T/C runs as follows: under setting [13], 100 % of control; under setting [14], 96 % of control; (dose: 200.0 mg/kg/injection, schedule: Q01DX001 (ip), vehicle: saline) 102 % of control; (dose: 400.0 mg/kg/injection, schedule: Q01DX001 (ip), vehicle: saline) 102 % of control.

With `COc1cc(NS(C)(=O)=O)ccc1Nc1c2cccc(C)c2nc2c(C)cccc12`, the T/C (dose: 6.25 mg/kg/injection, schedule: Q01DX009 (ip), vehicle: saline) was 117 % of control; the T/C (dose: 6.25 mg/kg/injection, schedule: Q01DX009 (sc), vehicle: Klucel (hydroxypropylcellulose) (HPC)) is 103 % of control; the T/C (dose: 12.5 mg/kg/injection, schedule: Q01DX009 (ip), vehicle: water) is 170 % of control; the T/C (dose: 12.5 mg/kg/injection, schedule: Q01DX009 (sc), vehicle: Klucel (hydroxypropylcellulose) (HPC)) is 104 % of control; the T/C under setting [11] is 175 % of control; the T/C (dose: 25.0 mg/kg/injection, schedule: Q01DX009 (ip), vehicle: water) is 201 % of control. Besides, the T/C is 112 % of control (dose: 25.0 mg/kg/injection, schedule: Q01DX009 (sc), vehicle: Klucel (hydroxypropylcellulose) (HPC)); 115 % of control under setting [13]; 167 % of control (dose: 50.0 mg/kg/injection, schedule: Q01DX001 (ip), vehicle: water); 166 % of control under setting [12]; 111 % of control (dose: 50.0 mg/kg/injection, schedule: Q01DX009 (sc), vehicle: Klucel (hydroxypropylcellulose) (HPC)); 115 % of control under setting [14]. Further, the T/C is 213 % of control (dose: 100.0 mg/kg/injection, schedule: Q01DX001 (ip), vehicle: water); 107 % of control (dose: 100.0 mg/kg/injection, schedule: Q01DX009 (ip), vehicle: water); 224 % of control (dose: 200.0 mg/kg/injection, schedule: Q01DX001 (ip), vehicle: water); 102 % of control (dose: 400.0 mg/kg/injection, schedule: Q01DX001 (ip), vehicle: water).

With `CCCCCCCCCCCSCCCCCCCCCCC`, the T/C is 113 % of control (dose: 100.0 mg/kg/injection, schedule: Q04DX003 (ip), vehicle: saline with Tween-80); 94 % of control (dose: 200.0 mg/kg/injection, schedule: Q04DX003 (ip), vehicle: saline with Tween-80); 91 % of control (dose: 400.0 mg/kg/injection, schedule: Q04DX003 (ip), vehicle: saline with Tween-80).

With `CC1CCCCN1Cc1ccccc1COC(=O)c1cccc(Br)c1` (stereo not given), the T/C is, setting by setting: (dose: 100.0 mg/kg/injection, schedule: Q01DX001 (ip), vehicle: Klucel (hydroxypropylcellulose) (HPC)) 104 % of control; (dose: 200.0 mg/kg/injection, schedule: Q01DX001 (ip), vehicle: Klucel (hydroxypropylcellulose) (HPC)) 96 % of control.
